Measurements taken from US11247976B2, “Synthetic ligands that modulate the activity of the RhlR quorum sensing receptor” (Wisconsin Alumni Research Foundation, priority 2016, dated 2022).
Entries after “also recorded” stand apart in the source; their conditions may differ. Marks after values point to notes of the source that are not given here.

What was measured:
RhlR [1] = biological target: T1, RhlR (Pseudomonas aeruginosa, UniProt P54292); assay: E. coli RhlR reporter agonism assay (JLD271/pJN105R2/pSC11-rhlI*); assay type: cell-based, P. aeruginosa; settings: for activation at 10 µM: compound at 10 μM, RhlR activity relative to 1 mM BHL; for Emax: read-out: Maximum Activation (%)
T1 construct: expressed in transfected cells; host or cells: E. coli JLD271 (ΔsdiA) with pJN105R2 (arabinose-induced) and pSC11-rhlI*
T1 sequence (P54292 whole entry): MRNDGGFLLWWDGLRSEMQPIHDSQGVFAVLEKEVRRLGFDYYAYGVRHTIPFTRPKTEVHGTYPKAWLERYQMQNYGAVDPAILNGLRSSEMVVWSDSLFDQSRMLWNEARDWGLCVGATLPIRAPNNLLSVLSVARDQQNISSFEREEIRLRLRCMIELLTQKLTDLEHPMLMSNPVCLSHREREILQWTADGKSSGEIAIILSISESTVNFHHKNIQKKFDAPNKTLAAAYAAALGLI

RhlR [2] = biological target: T1, RhlR; assay: P. aeruginosa RhlR reporter agonism assay (PAO-JP2/prhlI-LVAgfp); assay type: cell-based; settings: P. aeruginosa reporter compared with E. coli reporter
Experimental: (§1) All media and reagents for bacterial culture were purchased from commercial sources. Bacteria were cultured in Luria-Bertani broth (LB) at 37° C. with shaking at 200 rpm unless otherwise noted. The bacterial reporter strains used for this study were (i) the heterologous E. coli strain JLD271 (ΔsdiA) harboring the RhlR expression plasmid pJN105R2 and the rhlI-lacZ transcriptional fusion reporter pSC11-rhlI*, (ii) the heterologous E. coli strain JLD271 (ΔsdiA) harboring the LasR expression plasmid pJN105L and the […] transcriptional fusion reporter pSC11, and (iii) the P. aeruginosa strain PAO-JP2 (ΔlasrhlI) harboring the rhlI-gfp transcriptional fusion reporter prhlI-LVAgfp. Reporter strains JLD271/pJN105R2/pSC11-rhlI* and JLD271/pJN105L/pSC11 were grown in LB containing 100 μg/mL ampicillin and 10 μg/mL gentamicin. Freezer stocks of bacterial strains were maintained at −80° C. in 1:1 LB:50% glycerol.
To evaluate the RhlR-modulatory activities of selected compounds in P. aeruginosa, the ΔlasIrhlI strain PAO-JP2 harboring plasmid prhlI-LVAgfp was used as previously reported.^38 Briefly, a subculture was prepared by diluting an overnight culture 1:100 in fresh LB and was grown to OD600=0.3. […] Subculture was treated with 100 nM OdDHL (to induce native expression of RhlR) by adding the appropriate amount of OdDHL stock solution in DMSO. The subculture was then dispensed ([…] aliquots) into each synthetic compound-containing well of the microtiter plate.
Plates were incubated at 37° C. for 6 h, and GFP production was monitored by using a Synergy 2 plate reader (λex=500 nm, λem=540 nm; BioTek, Winooski, Vt.) and quantified with Gen5 1.05 software (BioTek). The final OD600 for each well was measured to normalize GFP production to cell density. All synthetic compounds were tested in triplicate, and three separate trials were performed with unique cultures. Agonism dose-response analyses were performed by testing compounds over a range of concentrations with the RhlR reporter.
Library compounds J18 and J24, as well as controls BHL and S4, were evaluated for potency in the native genetic background of RhlR by using the P. aeruginosa strain PAO-JP2 (ΔlasIrhlI) harboring the RhlR reporter plasmid prhlI-LVAgfp (Table 3). Because the production of RhlR is dependent on LasR (in LB medium), all assays were performed in the presence of 100 nM OdDHL, enabling immediate transcription of RhlR via LasR activation. […] All compounds also retained similar potencies when screened in the P. aeruginosa background.

LasR = biological target: T2, LasR (Pseudomonas aeruginosa, UniProt P25084); assay: Selectivity of RhlR agonism over LasR agonism (E. coli LasR reporter JLD271/pJN105L/pSC11); assay type: cell-based, P. aeruginosa; settings: RhlR % activity divided by LasR % activity, > = negligible activity in LasR reporter
T2 construct: expressed in transfected cells; host or cells: E. coli JLD271 (ΔsdiA) with pJN105L and pSC11
T2 sequence (P25084 whole entry): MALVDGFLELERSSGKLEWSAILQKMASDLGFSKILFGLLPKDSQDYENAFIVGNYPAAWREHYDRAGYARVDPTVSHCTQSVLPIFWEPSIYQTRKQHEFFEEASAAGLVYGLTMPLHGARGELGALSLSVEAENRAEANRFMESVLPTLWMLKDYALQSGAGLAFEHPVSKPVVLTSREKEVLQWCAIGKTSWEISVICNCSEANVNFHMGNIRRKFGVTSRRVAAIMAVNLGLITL
Experimental: as §1
To evaluate the modulatory activities of library compounds on RhlR and LasR using E. coli reporters, the strains JLD271/pJN105R2/pSC11-rhlI* and JLD271/pJN105L/pSC11 were used, respectively, as previously described.^38, 51 The following modifications were used in the RhlR agonism reporter assay, non-native compounds (10 μM or 1 mM) were compared to 1 mM BHL as the positive control. Briefly, a subculture was prepared by diluting an overnight culture 1:10 with fresh media containing 100 μg/mL ampicillin and 10 μg/mL gentamicin, and was incubated until it had grown to OD600=0.45. In all assays, L-arabinose was added to a final concentration of 4 mg/mL to induce RhlR expression. For RhlR agonism assays, activities of test compounds were measured relative to 1 mM BHL (the concentration required to induce a maximal level of RhlR activity). For RhlR antagonism assays, test compounds were competed against a concentration of BHL approximately equal to its EC50 value (10 μM). Activity was measured relative to 10 μM BHL. Inhibition was calculated by subtracting 100% from the relative activity value. Thus, 0% inhibition mimics represents no competitive displacement of 10 μM BHL by a test compound. In all assays, modifications were made to the standard Miller assay protocol to accommodate the use of the chlorophenol red-β-D-galactopyranoside (CPRG) β-galactosidase substrate. After cell lysis, 150 μL of the aqueous layer was transferred from each well of a solvent-resistant 96-well microtiter plate to the wells of a new clear, flat-bottom 96-well microtiter plate. CPRG (4 mg/mL in phosphate-buffered saline) was added to each well in 25 μL volumes. Plates were incubated at 30° C. until the positive control wells developed a red color (approximately 30 min). The amount of processed CPRG substrate was assessed by measuring the absorbance of each well at 570 nm. Enzymatic activity was calculated using the following equation: adjusted Miller units=1000·Abs570/(OD600·t·V),
LasR assays were processed using the protocol for the substrate ortho-nitrophenyl-β-galactoside (ONPG) as previously described elsewhere.^53; and LasR antagonism assays were performed versus the EC50 for OdDHL (2 nM).
The selectivity of certain compounds for RhlR over LasR was measured using a LasR reporter strain (details above). Table 6 provides a comparison of selectivity of RhlR agonism over LasR agonism for exemplary compounds. Table 7 provides a comparison of selectivity of RhlR antagonism over LasR antagonism for exemplary compounds.

Structure (SMILES): O=C(N[C@H]1CCCC1=O)C1CCC1 [RN12]
- EC50 (RhlR [1]): 5.94 µM
- activation at 10 µM (RhlR [1]; E. coli reporter): > 50%
- Emax (RhlR [1]): 93%
- RhlR agonist potency in words (RhlR [2]): maintained activity between the two different reporters
- Fold selectivity of RhlR agonists over LasR agonism (LasR; tested concentration 1 mM): 6.8 fold
- Fold selectivity of RhlR agonists over LasR agonism (LasR; tested concentration 10 μm): >56^b fold

Structure (SMILES): CC(C)CC(=O)N[C@H]1CCSC1=O [RN37]
- EC50 (RhlR [1]): 0.463 µM
- RhlR agonist potency in words (RhlR [1]; dose-response, E. coli reporter): improves potency two-fold over the homoserine lactone variant; also recorded: most potent RhlR agonist found in the E. coli reporter
- Emax (RhlR [1]): 93%
- RhlR agonist potency in words (RhlR [2]): not able to retain potency
- Fold selectivity of RhlR agonists over LasR agonism (LasR; tested concentration 1 mM): 13 fold
- Fold selectivity of RhlR agonists over LasR agonism (LasR; tested concentration 10 μm): >85^b fold

Structure (SMILES): CC(C)CC(=O)N[C@H]1CCCC1=O [RN36]
- EC50 (RhlR [1]): 7.58 µM
- activation at 10 µM (RhlR [1]; E. coli reporter): > 50%
- Emax (RhlR [1]): 101%
- RhlR agonist potency in words (RhlR [2]): not able to retain potency
- Fold selectivity of RhlR agonists over LasR agonism (LasR; tested concentration 1 mM): >84^b fold
- Fold selectivity of RhlR agonists over LasR agonism (LasR; tested concentration 10 μm): 105^ fold

Structure (SMILES): O=C(COc1ccc(I)cc1)N[C@H]1CCSC1=O [RN22]
- activation at 10 µM (RhlR [1]; E. coli reporter): 1%
